The values that follow come from paper PMC6556873, “Rapid Covalent-Probe Discovery by Electrophile-Fragment Screening” (Journal of the American Chemical Society, 2019).

A short description of series [1]: in vitro. Also on record: species or system HB2, HEK293. Conditions: human, ccd841 cells.
Series [2] can be described thus: in vitro. More on the design: species or system CCD841, HEK293. Conditions: human, hb2 cells, read-out: HB-2 Cells Viability (%).
The target in another series is T1, OTUB2 (OTUB2A) (Homo sapiens, UniProt Q96DC9).
T1 construct: full length residues 1-234, E. coli BL21(DE3)-R3, His tag removed by TEV, construct 27312 Da
T1 sequence (Q96DC9 1-234): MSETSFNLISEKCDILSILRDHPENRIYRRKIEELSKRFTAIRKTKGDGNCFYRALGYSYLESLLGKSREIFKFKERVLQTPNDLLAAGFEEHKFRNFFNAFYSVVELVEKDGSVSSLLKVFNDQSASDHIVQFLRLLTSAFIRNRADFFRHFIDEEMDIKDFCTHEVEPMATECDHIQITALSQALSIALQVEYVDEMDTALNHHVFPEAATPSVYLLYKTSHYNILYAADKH
Also on record: Intact protein LC/MS covalent labelling, fragments in pools of five, 200 uM each, 4 °C. Particulars: 24 h, 4 °C, pool of five; 200 µM; covalent.

Another series deals with T2, BSA (Bos taurus, UniProt P02769).
T2 construct: gene ALB
T2 sequence (P02769 whole entry): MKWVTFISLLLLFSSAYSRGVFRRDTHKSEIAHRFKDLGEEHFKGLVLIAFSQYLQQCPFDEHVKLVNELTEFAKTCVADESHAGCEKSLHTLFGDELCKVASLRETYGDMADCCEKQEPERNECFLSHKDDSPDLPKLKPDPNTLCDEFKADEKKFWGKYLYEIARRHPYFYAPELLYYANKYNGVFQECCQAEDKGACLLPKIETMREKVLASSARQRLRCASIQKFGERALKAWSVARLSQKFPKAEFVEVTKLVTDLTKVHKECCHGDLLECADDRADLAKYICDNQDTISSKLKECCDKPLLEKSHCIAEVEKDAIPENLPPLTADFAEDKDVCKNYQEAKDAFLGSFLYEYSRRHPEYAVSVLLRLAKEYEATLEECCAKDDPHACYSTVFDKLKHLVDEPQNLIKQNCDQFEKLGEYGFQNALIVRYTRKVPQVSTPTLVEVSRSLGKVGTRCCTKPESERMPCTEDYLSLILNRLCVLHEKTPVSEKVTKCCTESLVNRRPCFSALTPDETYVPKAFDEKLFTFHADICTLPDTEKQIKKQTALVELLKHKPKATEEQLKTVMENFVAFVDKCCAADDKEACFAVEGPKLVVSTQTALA
Also on record: Intact protein LC/MS covalent labelling, fragments in pools of five, 200 uM each, 4 °C. Particulars: 24 h, 4 °C, pool of five; 200 µM; covalent.

A further series addresses T3, NUDT7 (Homo sapiens, UniProt P0C024).
T3 construct: residues 14-235, E. coli, pNIC28-Bsa4, N-terminal His6 tag removed by TEV, construct 26672 Da
Also on record: Intact protein LC/MS covalent labelling, fragments in pools of five, 200 uM each, 4 °C. Conditions: 24 h, 4 °C, pool of five; 200 µM; covalent.

A further series deals with T4, PCAF (Homo sapiens, UniProt Q92831).
T4 construct: gene KAT2B
T4 sequence (Q92831 whole entry): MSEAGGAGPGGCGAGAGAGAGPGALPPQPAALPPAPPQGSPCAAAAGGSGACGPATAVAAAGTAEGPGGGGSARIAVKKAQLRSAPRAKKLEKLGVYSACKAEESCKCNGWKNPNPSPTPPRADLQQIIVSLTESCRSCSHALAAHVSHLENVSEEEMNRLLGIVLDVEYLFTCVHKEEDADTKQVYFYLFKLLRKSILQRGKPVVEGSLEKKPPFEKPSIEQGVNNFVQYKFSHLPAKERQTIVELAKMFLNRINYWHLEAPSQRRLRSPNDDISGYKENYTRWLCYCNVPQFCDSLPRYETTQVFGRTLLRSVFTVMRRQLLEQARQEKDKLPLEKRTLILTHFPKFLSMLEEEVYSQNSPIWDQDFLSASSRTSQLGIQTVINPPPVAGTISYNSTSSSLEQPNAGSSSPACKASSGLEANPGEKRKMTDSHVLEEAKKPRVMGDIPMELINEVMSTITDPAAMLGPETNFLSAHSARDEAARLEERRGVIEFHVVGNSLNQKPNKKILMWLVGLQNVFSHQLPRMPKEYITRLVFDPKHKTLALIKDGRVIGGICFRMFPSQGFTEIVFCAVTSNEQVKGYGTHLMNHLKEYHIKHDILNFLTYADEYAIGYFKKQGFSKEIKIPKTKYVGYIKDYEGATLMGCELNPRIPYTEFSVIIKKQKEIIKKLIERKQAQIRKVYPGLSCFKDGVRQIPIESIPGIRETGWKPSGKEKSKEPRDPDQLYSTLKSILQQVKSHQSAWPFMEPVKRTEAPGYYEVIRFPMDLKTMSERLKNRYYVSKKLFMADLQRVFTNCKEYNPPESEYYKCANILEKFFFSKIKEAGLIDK
More on the design: Intact protein LC/MS covalent labelling, fragments in pools of five, 200 uM each, 4 °C. Particulars: 24 h, 4 °C, pool of five; 200 µM; covalent.

Series [3] in a line: in vitro. Particulars: human, hek293 cells. Also on record: species or system HB2, CCD841.

Read-outs that look alike come from different tables or passages of the source.

T3 sequence (P0C024 14-235): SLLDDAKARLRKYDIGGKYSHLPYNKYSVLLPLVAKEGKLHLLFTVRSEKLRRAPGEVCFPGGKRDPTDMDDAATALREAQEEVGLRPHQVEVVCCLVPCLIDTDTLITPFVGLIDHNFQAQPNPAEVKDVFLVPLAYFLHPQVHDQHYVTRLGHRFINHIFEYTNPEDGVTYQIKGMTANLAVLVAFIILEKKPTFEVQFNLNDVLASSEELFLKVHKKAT

Regarding `O=C(CCl)NC(=O)NCc1ccco1` [PCM-0102494], the viability at 48 h, 10 µM in the series “in vitro [1]” was determined as 85.4%; in “in vitro [2]”, 75.2%; in “in vitro [3]” it was 86.6%. For the same compound, the OTUB2 at OTUB2 (OTUB2A) was determined as 0. The BSA on BSA came to 0. At NUDT7, the NUDT7 amounted to 0. The compound also had a PCAF on PCAF of 0.

Consider `NC(=O)C1CCCN(C(=O)CCl)C1` (centres unmarked) [PCM-0102495], for which the viability at 48 h, 10 µM in “in vitro [1]” was determined as 93%; in the series “in vitro [2]”, 92.7%; in the series “in vitro [3]”, 81.7%. On OTUB2 (OTUB2A), the OTUB2 amounted to 0. The compound also showed a BSA at BSA of 0. Also, the NUDT7 at NUDT7 is 0. At PCAF, this compound had a PCAF of 0.

`Cl.O=C(CCl)NCc1cccnc1` [PCM-0102497]: the viability at 48 h, 10 µM came out at 90.2% in the series “in vitro [1]”, 106% in the series “in vitro [2]” and 107% in the series “in vitro [3]”. The compound also returned an OTUB2 at OTUB2 (OTUB2A) of 0.05. Further, the BSA on BSA is recorded as 0. Also, on NUDT7, the NUDT7 is on record as 0. Besides, the PCAF at PCAF was found to be 0.

Regarding `CC12CCC(CC1=NNC(=O)CCl)C2(C)C` (centres unmarked) [PCM-0102498], the viability at 48 h, 10 µM was found to be 14.6% in the series “in vitro [1]”, 25.9% in the series “in vitro [2]” and 2.2% in the series “in vitro [3]”. The OTUB2 on OTUB2 (OTUB2A) is listed as 0. In addition, the BSA at BSA is listed as 0. The compound further had an NUDT7 on NUDT7 of 0. This compound also showed a PCAF on PCAF of 0.

As to `C=CC(=O)Nc1ccc2c(c1)NC(=O)CO2` [PCM-0102499], the viability at 48 h, 10 µM in the series “in vitro [1]” is 108%; in the series “in vitro [2]”, 104%; in “in vitro [3]” it was 71.7%. Besides, on OTUB2 (OTUB2A), the OTUB2 is recorded as 0. On BSA, the BSA is reported as 0. This compound also displayed an NUDT7 at NUDT7 of 0.1. This compound also yielded a PCAF at PCAF of 0.

As for `Cc1cc(NC(=O)CCl)no1` [PCM-0102500], the viability at 48 h, 10 µM was found to be 73.3% in the series “in vitro [1]”, 66.8% in the series “in vitro [2]” and 60.3% in the series “in vitro [3]”. For the same compound, at OTUB2 (OTUB2A), the OTUB2 was determined as 0.35. The BSA at BSA is given as 0. This compound gave an NUDT7 at NUDT7 of 0. In addition, the PCAF on PCAF is 0.

On to `Cc1nn(-c2ccccc2)c(C)c1NC(=O)CCl` [PCM-0102501], for which the viability at 48 h, 10 µM in “in vitro [1]” came out at 68.3%; in “in vitro [2]”, 83.2%; in the series “in vitro [3]”, 62.2%. On OTUB2 (OTUB2A), this compound returned an OTUB2 of 0.09. For the same compound, the BSA at BSA was 0. At NUDT7, this compound registered an NUDT7 of 0.09. Moreover, the PCAF at PCAF was found to be 0.

Take `CC(C)CNC(=O)NC(=O)CCl` [PCM-0102502]: the viability at 48 h, 10 µM in the series “in vitro [1]” turned out to be 80.7%; in “in vitro [2]”, 78%; in the series “in vitro [3]” it was 52.7%. The same compound yielded an OTUB2 at OTUB2 (OTUB2A) of 0. On BSA, the BSA came out at 0. At NUDT7, this compound showed an NUDT7 of 0. On PCAF, this compound came in with a PCAF of 0.

`C=CC(=O)N1CCn2c(cc3ccc(Cl)cc32)C1` [PCM-0102503]: the values for the viability at 48 h, 10 µM in “in vitro [1]”, in the series “in vitro [2]” and in the series “in vitro [3]” were 102%, 98.2% and 74.4%, respectively. This compound gave an OTUB2 at OTUB2 (OTUB2A) of 0. Further, the BSA at BSA came to 0. In addition, on NUDT7, the NUDT7 was 0. For the same compound, the PCAF at PCAF is reported as 0.

In the case of `CC(C)NC(=O)NC(=O)CCl` [PCM-0102504], the viability at 48 h, 10 µM is 81.5% in the series “in vitro [1]”, 92% in “in vitro [2]” and 66.9% in “in vitro [3]”. The compound further registered an OTUB2 on OTUB2 (OTUB2A) of 0. The BSA at BSA came to 0. Also, the NUDT7 at NUDT7 was 0. The compound further showed a PCAF at PCAF of 0.

For the compound `O=C(CCl)Nc1ccc(Br)cc1Cl` [PCM-0102505], the viability at 48 h, 10 µM in the series “in vitro [1]” amounted to 74.6%; in the series “in vitro [2]”, 41.7%; in “in vitro [3]”, 31.6%. The compound further displayed an OTUB2 at OTUB2 (OTUB2A) of 0.07. For the same compound, the BSA at BSA was found to be 0. The same compound displayed an NUDT7 at NUDT7 of 0.59. On PCAF, this compound registered a PCAF of 0.

Regarding `O=C(CCl)Nc1ccccc1I` [PCM-0102509], the viability at 48 h, 10 µM was 91.1% in the series “in vitro [1]”, 95.5% in “in vitro [2]” and 99.4% in “in vitro [3]”. For the same compound, the OTUB2 on OTUB2 (OTUB2A) was 0. The compound also had a BSA on BSA of 0.1. Also, on NUDT7, the NUDT7 is listed as 0. The compound further had a PCAF at PCAF of 0.

On to `O=C(CCl)NNC(=O)c1ccccc1F` [PCM-0102510], for which the viability at 48 h, 10 µM stood at 72.7% in the series “in vitro [1]”, 98% in “in vitro [2]” and 93.1% in the series “in vitro [3]”. This compound gave an OTUB2 at OTUB2 (OTUB2A) of 0.52. At BSA, this compound gave a BSA of 0. At NUDT7, this compound showed an NUDT7 of 0. This compound yielded a PCAF at PCAF of 0.

With `C=CC(=O)N1CCN(c2ccnc(-c3ccccc3)n2)CC1` [PCM-0102515], the viability at 48 h, 10 µM is 105% in the series “in vitro [1]”, 88.8% in “in vitro [2]” and 73% in the series “in vitro [3]”. Further, on OTUB2 (OTUB2A), the OTUB2 turned out to be 0. The BSA on BSA amounted to 0. On NUDT7, this compound registered an NUDT7 of 0. The compound also registered a PCAF at PCAF of 0.

For `CC(C)N(CC(F)(F)F)C(=O)CCl` [PCM-0102516], the figures for the viability at 48 h, 10 µM in the series “in vitro [1]”, in the series “in vitro [2]” and in “in vitro [3]” were 109%, 103% and 106%, respectively. The OTUB2 on OTUB2 (OTUB2A) is reported as 0. Further, on BSA, the BSA is 0. For the same compound, on NUDT7, the NUDT7 worked out at 0. Besides, on PCAF, the PCAF was found to be 0.

For `CNC(=O)C1CCCN1C(=O)CCl` (centres unmarked) [PCM-0102518], the viability at 48 h, 10 µM turned out to be 93.3% in “in vitro [1]”, 101% in “in vitro [2]” and 67.8% in the series “in vitro [3]”. On OTUB2 (OTUB2A), the OTUB2 is given as 0. This compound also displayed a BSA at BSA of 0. Further, the NUDT7 at NUDT7 is 0. The same compound gave a PCAF on PCAF of 0.

With `C=CC(=O)N1CCCN(C(=O)C2CCCO2)CC1` (centres unmarked) [PCM-0102519], the viability at 48 h, 10 µM in the series “in vitro [1]” was determined as 108%; in the series “in vitro [2]” it was 98.2%; in “in vitro [3]” it was 95.5%. The compound also had an OTUB2 at OTUB2 (OTUB2A) of 0. The compound also yielded a BSA at BSA of 0. The same compound returned an NUDT7 on NUDT7 of 0. The same compound came in with a PCAF at PCAF of 0.

Regarding `C=CC(=O)N1CCC2(CC1)NC(=O)C1(CCCCC1)N2` [PCM-0102520], the viability at 48 h, 10 µM worked out at 106% in “in vitro [1]”, 101% in “in vitro [2]” and 107% in “in vitro [3]”. On OTUB2 (OTUB2A), this compound had an OTUB2 of 0. This compound had a BSA on BSA of 0. In addition, the NUDT7 at NUDT7 is listed as 0. Further, the PCAF on PCAF turned out to be 0.

Turning to `C=CC(=O)N1CCCC(NS(C)(=O)=O)C1` (centres unmarked) [PCM-0102522], the viability at 48 h, 10 µM in “in vitro [1]” came to 112%; in “in vitro [2]” it was 106%; in the series “in vitro [3]”, 106%. Besides, the OTUB2 at OTUB2 (OTUB2A) is 0. The compound also gave a BSA on BSA of 0. In addition, on NUDT7, the NUDT7 is listed as 0. Besides, on PCAF, the PCAF stood at 0.

For the compound `C=CC(=O)NCC1CCOC2(CCC2)C1` (centres unmarked) [PCM-0102523], the viability at 48 h, 10 µM in “in vitro [1]” stood at 117%; in “in vitro [2]” it was 102%; in the series “in vitro [3]”, 90.4%. Further, the OTUB2 on OTUB2 (OTUB2A) was 0. Further, the BSA at BSA is on record as 0. For the same compound, on NUDT7, the NUDT7 was determined as 0. In addition, the PCAF at PCAF worked out at 0.

For orientation: viability means a read-out of living cells in per cent, often relative to untreated cells.
